The target of assay [1] is T1, Solute carrier family 15 member 1 (Homo sapiens) (UniProt P46059).
T1 sequence (whole entry): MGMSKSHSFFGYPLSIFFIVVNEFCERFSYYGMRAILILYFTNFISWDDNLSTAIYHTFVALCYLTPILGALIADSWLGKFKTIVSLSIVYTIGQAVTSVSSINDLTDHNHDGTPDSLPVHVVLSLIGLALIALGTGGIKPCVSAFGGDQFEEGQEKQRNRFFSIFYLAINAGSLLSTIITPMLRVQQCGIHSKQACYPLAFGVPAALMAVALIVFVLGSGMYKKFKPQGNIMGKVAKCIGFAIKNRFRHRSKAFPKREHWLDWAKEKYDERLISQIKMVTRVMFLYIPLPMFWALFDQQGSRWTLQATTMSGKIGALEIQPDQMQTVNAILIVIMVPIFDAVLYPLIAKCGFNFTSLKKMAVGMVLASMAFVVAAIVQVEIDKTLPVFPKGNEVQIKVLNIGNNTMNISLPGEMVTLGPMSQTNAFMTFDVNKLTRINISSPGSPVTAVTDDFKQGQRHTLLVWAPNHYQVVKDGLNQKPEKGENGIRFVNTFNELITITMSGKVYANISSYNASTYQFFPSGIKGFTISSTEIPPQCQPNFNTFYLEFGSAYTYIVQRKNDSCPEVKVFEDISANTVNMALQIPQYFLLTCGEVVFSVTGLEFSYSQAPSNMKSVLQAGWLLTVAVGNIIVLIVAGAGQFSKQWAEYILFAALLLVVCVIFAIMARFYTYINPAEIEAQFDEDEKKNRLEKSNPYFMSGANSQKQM
Kind of assay: TP_TRANSPORTER: trans-stimulation of Sulpiride uptake (Surpiride: 100 uM, Gly-Sar: 1000 uM) in Caco-2 cells. Type of assay: functional, cell-based.

The target in assay [2] is T1, Solute carrier family 15 member 1 (Homo sapiens). As to the kind of experiment: TP_TRANSPORTER: inhibition of Sulpiride uptake (Surpiride: 100 uM, Gly-Sar: 1000 uM) in Caco-2 cells. The assay is classed as functional, cell-based. Set-up: scale not given: the % may be the effect or the level left.

Peptide text beside a SMILES is read from it.

As to `CN(CC(=O)O)C(=O)CN` (HELM PEPTIDE1{G.[Sar]}$$$$V2.0), the Activity was 135% in assay [1] and 65% in assay [2].

The record behind these values is ChEMBL document CHEMBL2074171, “Studies on intestinal absorption of sulpiride (1): carrier-mediated uptake of sulpiride in the human intestinal cell line Caco-2” (Biol Pharm Bull, 2002).
